# Patent US7812220B2, “Engineering β-ketoacyl ACP synthase for novel substrate specificity” (Calgene LLC, priority 1999, dated 2010)
# Key:
# [1] = molecular target: fatty acid synthase from Saccharomyces cerevisiae (Saccharomyces cerevisiae, UniProt P19097); conditions: among chain length analogues maintaining the double bond positions; cited from earlier work
# KASII = conditions: in comparison with cerulenin; cited from earlier work
# E. coli strain M15/pREP4 = assay: Effect of expression of KAS II mutants on the fatty acid composition of E. coli (GC FAME); assay type: cell-based; conditions: for accumulation of 18:0: IPTG induced 2 hours; for long chain fatty acid accumulation due to L111A and F133A: in combination mutants
# Method: The mutant KAS II genes cloned behind an IPTG inducible T5 promoter (pQE30 vector, Qiagen) were transformed into E. coli strain M15/pREP4. E. coli M15/pREP4 strains containing no vector (−Vec), vector without insert (+Vec), or vectors expression wild-type KAS I or II or single or multiple engineered forms of KASII were grown to mid-log phase in LB media at 30° C. Expression was induced for 2 hours with IPTG (0.75 mM), cells were harvested, lyophilzed, and the lipids were extracted into toluene and derivatized by sodium methoxide and analyzed for fatty acid content by GC FAME analysis as described in Dehesh, et al. (1998) Plant J. 15:383-390.
# Chain of fatty acid synthase from Saccharomyces cerevisiae (P19097 whole entry): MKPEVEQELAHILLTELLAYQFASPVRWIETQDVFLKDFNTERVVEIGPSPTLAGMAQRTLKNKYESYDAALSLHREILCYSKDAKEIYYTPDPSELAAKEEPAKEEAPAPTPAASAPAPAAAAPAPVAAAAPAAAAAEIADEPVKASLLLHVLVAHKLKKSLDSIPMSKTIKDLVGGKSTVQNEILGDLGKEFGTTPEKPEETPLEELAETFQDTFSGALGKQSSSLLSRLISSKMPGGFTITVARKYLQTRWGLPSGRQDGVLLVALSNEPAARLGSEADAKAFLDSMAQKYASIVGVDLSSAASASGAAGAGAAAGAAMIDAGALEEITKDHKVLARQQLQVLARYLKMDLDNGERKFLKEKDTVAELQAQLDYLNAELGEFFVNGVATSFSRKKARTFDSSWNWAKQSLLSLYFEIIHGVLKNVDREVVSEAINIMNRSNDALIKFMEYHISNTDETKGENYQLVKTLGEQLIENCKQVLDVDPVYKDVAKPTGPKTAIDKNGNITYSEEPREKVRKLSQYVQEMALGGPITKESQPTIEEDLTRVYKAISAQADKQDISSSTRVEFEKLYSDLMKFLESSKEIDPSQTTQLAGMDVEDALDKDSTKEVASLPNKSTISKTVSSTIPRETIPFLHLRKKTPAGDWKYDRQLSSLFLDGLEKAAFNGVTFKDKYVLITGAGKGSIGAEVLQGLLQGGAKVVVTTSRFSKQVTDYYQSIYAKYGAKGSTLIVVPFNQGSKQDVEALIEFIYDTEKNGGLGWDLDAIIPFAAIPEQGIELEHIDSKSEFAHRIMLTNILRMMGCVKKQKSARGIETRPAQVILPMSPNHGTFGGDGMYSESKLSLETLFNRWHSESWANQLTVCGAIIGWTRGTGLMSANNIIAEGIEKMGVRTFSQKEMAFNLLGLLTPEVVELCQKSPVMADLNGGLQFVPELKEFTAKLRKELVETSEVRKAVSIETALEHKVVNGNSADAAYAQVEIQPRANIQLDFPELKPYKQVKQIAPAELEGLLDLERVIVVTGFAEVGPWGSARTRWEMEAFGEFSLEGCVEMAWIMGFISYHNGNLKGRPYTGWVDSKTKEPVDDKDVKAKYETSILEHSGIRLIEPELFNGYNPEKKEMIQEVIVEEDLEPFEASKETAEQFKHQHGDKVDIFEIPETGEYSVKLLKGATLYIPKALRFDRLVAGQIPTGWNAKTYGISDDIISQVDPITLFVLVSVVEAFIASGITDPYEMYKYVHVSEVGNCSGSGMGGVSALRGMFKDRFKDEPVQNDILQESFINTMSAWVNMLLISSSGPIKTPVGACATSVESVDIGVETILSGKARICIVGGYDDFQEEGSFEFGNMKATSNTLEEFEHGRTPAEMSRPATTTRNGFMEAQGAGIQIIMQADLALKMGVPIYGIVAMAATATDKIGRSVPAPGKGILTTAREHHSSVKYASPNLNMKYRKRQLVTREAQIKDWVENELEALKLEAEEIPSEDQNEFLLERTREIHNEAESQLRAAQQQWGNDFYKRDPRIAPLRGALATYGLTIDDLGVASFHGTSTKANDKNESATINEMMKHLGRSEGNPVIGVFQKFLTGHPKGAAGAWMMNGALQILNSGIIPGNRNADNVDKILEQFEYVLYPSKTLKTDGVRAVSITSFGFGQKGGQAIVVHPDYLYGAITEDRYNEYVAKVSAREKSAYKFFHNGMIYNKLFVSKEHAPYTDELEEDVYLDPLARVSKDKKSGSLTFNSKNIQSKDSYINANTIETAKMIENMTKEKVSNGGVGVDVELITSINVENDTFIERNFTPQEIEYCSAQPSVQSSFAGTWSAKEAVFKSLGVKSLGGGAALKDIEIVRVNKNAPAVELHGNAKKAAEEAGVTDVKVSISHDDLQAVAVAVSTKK
# Chain of fatty acid synthase from Saccharomyces cerevisiae (P07149 whole entry partner): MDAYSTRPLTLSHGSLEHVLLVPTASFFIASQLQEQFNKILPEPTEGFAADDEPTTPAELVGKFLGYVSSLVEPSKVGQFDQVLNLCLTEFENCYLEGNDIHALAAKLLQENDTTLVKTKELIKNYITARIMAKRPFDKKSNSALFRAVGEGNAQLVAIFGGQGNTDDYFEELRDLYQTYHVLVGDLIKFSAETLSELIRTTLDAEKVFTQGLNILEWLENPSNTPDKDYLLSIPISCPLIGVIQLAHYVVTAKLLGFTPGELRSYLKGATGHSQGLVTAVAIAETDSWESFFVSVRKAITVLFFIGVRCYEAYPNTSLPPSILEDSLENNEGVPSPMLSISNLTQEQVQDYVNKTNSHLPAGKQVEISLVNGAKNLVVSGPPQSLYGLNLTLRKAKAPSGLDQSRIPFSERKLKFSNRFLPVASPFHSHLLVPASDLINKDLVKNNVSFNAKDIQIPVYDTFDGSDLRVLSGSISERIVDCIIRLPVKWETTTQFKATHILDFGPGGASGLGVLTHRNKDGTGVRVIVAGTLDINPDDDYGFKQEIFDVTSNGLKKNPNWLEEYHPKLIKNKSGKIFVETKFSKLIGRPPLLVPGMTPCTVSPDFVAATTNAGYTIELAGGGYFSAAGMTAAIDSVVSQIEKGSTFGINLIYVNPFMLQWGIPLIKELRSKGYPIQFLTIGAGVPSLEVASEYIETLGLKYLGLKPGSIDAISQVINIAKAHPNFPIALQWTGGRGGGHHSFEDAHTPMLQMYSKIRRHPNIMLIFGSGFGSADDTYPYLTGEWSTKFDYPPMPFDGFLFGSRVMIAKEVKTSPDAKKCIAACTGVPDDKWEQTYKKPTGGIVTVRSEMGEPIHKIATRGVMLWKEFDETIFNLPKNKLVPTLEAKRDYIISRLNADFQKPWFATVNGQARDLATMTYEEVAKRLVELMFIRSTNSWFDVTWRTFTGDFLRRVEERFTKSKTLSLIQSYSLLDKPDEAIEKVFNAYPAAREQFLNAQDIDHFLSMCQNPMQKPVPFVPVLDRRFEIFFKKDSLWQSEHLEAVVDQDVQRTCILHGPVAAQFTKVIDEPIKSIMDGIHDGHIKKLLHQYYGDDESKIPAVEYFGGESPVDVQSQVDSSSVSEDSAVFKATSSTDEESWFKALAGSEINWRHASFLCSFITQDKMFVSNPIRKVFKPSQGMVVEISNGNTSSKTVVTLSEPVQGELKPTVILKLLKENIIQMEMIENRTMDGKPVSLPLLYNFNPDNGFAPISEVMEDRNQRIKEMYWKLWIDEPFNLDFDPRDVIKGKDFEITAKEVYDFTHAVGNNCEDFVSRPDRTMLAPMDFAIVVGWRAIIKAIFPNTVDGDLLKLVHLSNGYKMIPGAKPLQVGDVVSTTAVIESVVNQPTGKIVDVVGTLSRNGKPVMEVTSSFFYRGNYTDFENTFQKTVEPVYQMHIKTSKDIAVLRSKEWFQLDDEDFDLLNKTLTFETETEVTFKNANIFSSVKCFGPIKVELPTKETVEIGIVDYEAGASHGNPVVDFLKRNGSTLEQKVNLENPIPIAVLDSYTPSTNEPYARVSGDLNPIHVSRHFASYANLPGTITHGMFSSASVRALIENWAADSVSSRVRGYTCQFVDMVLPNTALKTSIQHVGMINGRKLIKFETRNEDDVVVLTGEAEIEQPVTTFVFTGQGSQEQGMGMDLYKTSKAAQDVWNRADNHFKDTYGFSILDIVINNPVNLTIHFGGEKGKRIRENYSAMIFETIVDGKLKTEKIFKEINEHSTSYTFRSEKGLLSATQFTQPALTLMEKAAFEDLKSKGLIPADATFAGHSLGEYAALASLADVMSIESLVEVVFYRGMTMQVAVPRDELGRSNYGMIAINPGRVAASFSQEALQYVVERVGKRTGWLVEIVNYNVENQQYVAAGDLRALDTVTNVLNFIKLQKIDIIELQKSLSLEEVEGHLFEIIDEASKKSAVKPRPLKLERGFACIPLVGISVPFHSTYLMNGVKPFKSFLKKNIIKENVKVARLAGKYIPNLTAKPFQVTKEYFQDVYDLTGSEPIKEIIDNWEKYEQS
molecule,measurement,setting,value
"C/C=C/C/C=C/CCC(=O)[C@H]1O[C@H]1C(N)=O [Cerulenin, cerulenin]",inhibitory activity,[1],highest inhibitory activity
CCCCCCCCC(=O)[C@H]1O[C@H]1C(N)=O [tetrahydrocerulenin],"inhibitory activity, less than cerulenin",KASII,more than 2 orders of magnitude
F133A: E. coli KAS II protein with F133A mutation,accumulation of 18:0,E. coli strain M15/pREP4; FIG. 3,7%
I108A,long chain fatty acid accumulation due to L111A and F133A,E. coli strain M15/pREP4,decrease the long chain fatty acid accumulation
I114A,long chain fatty acid accumulation due to L111A and F133A,E. coli strain M15/pREP4,decrease the long chain fatty acid accumulation
L111A: E. coli KAS II protein with L111A mutation,accumulation of 18:0,E. coli strain M15/pREP4; FIG. 3,13%
"L197: E. coli KAS II protein with L197A mutation (protein, UniProt P0AAI5 2-413, looked up, variant L197A) 3-oxoacyl-[acyl-carrier-protei …: SKRRVVVTGLGMLSPVGNTVESTWKALLAGQSGISLIDHFDTSAYATKFAGLVKDFNCEDIISRKEQRKMDAFIQYGIVAGVQAMQDSGLEITEENATRIGAAIGSGIGGLGLIEENHTSLMNGGPRKISPFFVPSTIVNMVAGHLTIMYGLRGPSISIATACTSGVHNIGHAARIIAYGDADVMVAGGAEKASTPAGVGGFGAARALSTRNDNPQAASRPWDKERDGFVLGDGAGMLVLEEYEHAKKRGAKIYAELVGFGMSSDAYHMTSPPENGAGAALAMANALRDAGIEASQIGYVNAHGTSTPAGDKAEAQAVKTIFGEAASRVLVSSTKSMTGHLLGAAGAVESIYSILALRDQAVPPTINLDNPDEGCDLDFVPHEARQVSGMEYTLCNSFGFGGTNGSLIFKKI",accumulation of 18:0,E. coli strain M15/pREP4; FIG. 3,4%
"KAS II/L111A-F133A (protein, UniProt P0AAI5 2-413, looked up, variant L111A F133A) 3-oxoacyl-[acyl-carrier-protei …: SKRRVVVTGLGMLSPVGNTVESTWKALLAGQSGISLIDHFDTSAYATKFAGLVKDFNCEDIISRKEQRKMDAFIQYGIVAGVQAMQDSGLEITEENATRIGAAIGSGIGGAGLIEENHTSLMNGGPRKISPFAVPSTIVNMVAGHLTIMYGLRGPSISIATACTSGVHNIGHAARIIAYGDADVMVAGGAEKASTPLGVGGFGAARALSTRNDNPQAASRPWDKERDGFVLGDGAGMLVLEEYEHAKKRGAKIYAELVGFGMSSDAYHMTSPPENGAGAALAMANALRDAGIEASQIGYVNAHGTSTPAGDKAEAQAVKTIFGEAASRVLVSSTKSMTGHLLGAAGAVESIYSILALRDQAVPPTINLDNPDEGCDLDFVPHEARQVSGMEYTLCNSFGFGGTNGSLIFKKI",level of 20:0,E. coli strain M15/pREP4; FIG. 3,2%
same,level of 20:1,E. coli strain M15/pREP4; FIG. 3,4%
